Tested on: 217524-143-R1-J4-PDC spheroids with HUVEC/MSC, viability
Experiment: Anticancer human tumor 217524-143-R1-J4-PDC patient-derived pancreatic carcinoma cell line growth inhibition [CLK]
Conditions: for IC50: curve of first compound; for viability, T/C: stronger effect = lower value
Summary of the method: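 Multi-cell-type spheroids combined patient-derived tumor cells with HUVEC endothelial cells and human mesenchymal stem cells. Paired agents were dosed in half-log steps down from about clinical Cmax, or from 10 microM where Cmax was unknown.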

[1] = second compound 0.0316 µM, first compound 0.0316 µM
[2] = second compound 0.0316 µM, first compound 0.1 µM
[3] = second compound 0.0316 µM, first compound 0.316 µM
[4] = second compound 0.0316 µM, first compound 1 µM
[5] = second compound 0.0316 µM, first compound 3.16 µM
[6] = second compound 0.0316 µM, first compound 10 µM
[7] = second compound 0.1 µM, first compound 0.0316 µM
[8] = second compound 0.1 µM, first compound 0.1 µM
[9] = second compound 0.1 µM, first compound 0.316 µM
[10] = second compound 0.1 µM, first compound 1 µM
[11] = second compound 0.1 µM, first compound 3.16 µM
[12] = second compound 0.1 µM, first compound 10 µM
[13] = second compound 0.316 µM, first compound 0.0316 µM
[14] = second compound 0.316 µM, first compound 0.1 µM
[15] = second compound 0.316 µM, first compound 0.316 µM
[16] = second compound 0.316 µM, first compound 1 µM
[17] = second compound 0.316 µM, first compound 3.16 µM
[18] = second compound 0.316 µM, first compound 10 µM
[19] = second compound 1 µM, first compound 0.0316 µM
[20] = second compound 1 µM, first compound 0.1 µM
[21] = second compound 1 µM, first compound 0.316 µM
[22] = second compound 1 µM, first compound 1 µM
[23] = second compound 1 µM, first compound 3.16 µM
[24] = second compound 1 µM, first compound 10 µM
[25] = second compound 3.16 µM, first compound 0.0316 µM
[26] = second compound 3.16 µM, first compound 0.1 µM
[27] = second compound 3.16 µM, first compound 0.316 µM
[28] = second compound 3.16 µM, first compound 1 µM
[29] = second compound 3.16 µM, first compound 3.16 µM
[30] = second compound 3.16 µM, first compound 10 µM
[31] = second compound 10 µM, first compound 0.0316 µM
[32] = second compound 10 µM, first compound 0.1 µM
[33] = second compound 10 µM, first compound 0.316 µM
[34] = second compound 10 µM, first compound 1 µM
[35] = second compound 10 µM, first compound 3.16 µM
[36] = second compound 10 µM, first compound 10 µM
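Also: spheroids exposed to agents for seven days before reading.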
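For viability, T/C in this document: 100% = DMSO vehicle control viability.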

Which results are given for `CC1(C)CCC(CN2CCN(c3ccc(C(=O)NS(=O)(=O)c4ccc(NCC5CCOCC5)c([N+](=O)[O-])c4)c(Oc4cnc5[nH]ccc5c4)c3)CC2)=C(c2ccc(Cl)cc2)C1` + CN1CCN(c2cc(C(=O)Nc3cc4cc(-c5cnn(C)c5)ccc4cn3)ccn2)CC1?
IC50 (second compound 0.0316 µM): 5020 nM; IC50 (second compound 0.1 µM): 3820 nM; IC50 (second compound 0.316 µM): < 31.6 nM; IC50 (second compound 1 µM): < 31.6 nM; IC50 (second compound 3.16 µM): < 31.6 nM; IC50 (second compound 10 µM): < 31.6 nM; viability, T/C [1]: 83.2%; viability, T/C [2]: 68.9%; viability, T/C [3]: 89.4%; viability, T/C [4]: 88.4%; viability, T/C [5]: 77.1%; viability, T/C [6]: 9.4%; viability, T/C [7]: 55.5%; viability, T/C [8]: 55%; viability, T/C [9]: 55.1%; viability, T/C [10]: 65.7%; viability, T/C [11]: 60.2%; viability, T/C [12]: 7.83%; viability, T/C [13]: 19.1%; viability, T/C [14]: 20.4%; viability, T/C [15]: 21.5%; viability, T/C [16]: 22.8%; viability, T/C [17]: 20.9%; viability, T/C [18]: 6.29%; viability, T/C [19]: 2.02%; viability, T/C [20]: 1.96%; viability, T/C [21]: 1.65%; viability, T/C [22]: 1.7%; viability, T/C [23]: 1.3%; viability, T/C [24]: 1.35%; viability, T/C [25]: 0.59%; viability, T/C [26]: 0.61%; viability, T/C [27]: 0.76%; viability, T/C [28]: 0.45%; viability, T/C [29]: 0.49%; viability, T/C [30]: 0.25%; viability, T/C [31]: 0.16%; viability, T/C [32]: 0.16%; viability, T/C [33]: 0.19%; viability, T/C [34]: 0.26%; viability, T/C [35]: 0.24%; viability, T/C [36]: 0.17%

`CC1COCCN1c1cc(C2(S(C)(=N)=O)CC2)nc(-c2ccnc3[nH]ccc23)n1` (stereo unspecified) + CN1CCN(c2cc(C(=O)Nc3cc4cc(-c5cnn(C)c5)ccc4cn3)ccn2)CC1 was tested. Which IC50 (second compound 0.0316 µM) did it give?
The IC50 was 1430 nM.

What about the IC50 (second compound 0.1 µM) of the same molecule?
Its IC50 is 342 nM.

And the IC50 (second compound 0.316 µM)?
The IC50 was < 31.6 nM.

And the IC50 (second compound 1 µM)?
The IC50 was < 31.6 nM.

And the IC50 (second compound 3.16 µM)?
Its IC50 is < 31.6 nM.

What about the IC50 (second compound 10 µM) of the same molecule?
The IC50 was < 31.6 nM.

What about the viability, T/C [1] of the same molecule?
The viability, T/C was 93.1%.

And the viability, T/C [2]?
Its viability, T/C is 79.7%.

And the viability, T/C [3]?
Its viability, T/C is 63.9%.

What about the viability, T/C [4] of the same molecule?
The viability, T/C was 66.3%.

And the viability, T/C [5]?
Its viability, T/C is 32.9%.

And the viability, T/C [6]?
The viability, T/C was 18.6%.

And the viability, T/C [7]?
Its viability, T/C is 56.7%.

What about the viability, T/C [8] of the same molecule?
The viability, T/C was 67.3%.

And the viability, T/C [9]?
Its viability, T/C is 43.1%.

What about the viability, T/C [10] of the same molecule?
Its viability, T/C is 42.3%.

What about the viability, T/C [11] of the same molecule?
Its viability, T/C is 29.1%.

And the viability, T/C [12]?
The viability, T/C was 16.4%.

What about the viability, T/C [13] of the same molecule?
The viability, T/C was 22.1%.

And the viability, T/C [14]?
Its viability, T/C is 19.2%.

And the viability, T/C [15]?
Its viability, T/C is 17.1%.

And the viability, T/C [16]?
The viability, T/C was 16.1%.

And the viability, T/C [17]?
The viability, T/C was 12.3%.

And the viability, T/C [18]?
Its viability, T/C is 11.4%.

And the viability, T/C [19]?
Its viability, T/C is 1.72%.

And the viability, T/C [20]?
Its viability, T/C is 1.95%.

And the viability, T/C [21]?
Its viability, T/C is 2.1%.

What about the viability, T/C [22] of the same molecule?
Its viability, T/C is 1.89%.

What about the viability, T/C [23] of the same molecule?
The viability, T/C was 1.87%.

And the viability, T/C [24]?
Its viability, T/C is 1.22%.

And the viability, T/C [25]?
Its viability, T/C is 0.77%.

What about the viability, T/C [26] of the same molecule?
The viability, T/C was 0.42%.

What about the viability, T/C [27] of the same molecule?
Its viability, T/C is 0.98%.

And the viability, T/C [28]?
The viability, T/C was 0.65%.

What about the viability, T/C [29] of the same molecule?
Its viability, T/C is 0.84%.

And the viability, T/C [30]?
Its viability, T/C is 1.13%.

What about the viability, T/C [31] of the same molecule?
The viability, T/C was 0.21%.

What about the viability, T/C [32] of the same molecule?
Its viability, T/C is 0.17%.

And the viability, T/C [33]?
Its viability, T/C is 0.25%.

And the viability, T/C [34]?
Its viability, T/C is 0.29%.

What about the viability, T/C [35] of the same molecule?
Its viability, T/C is 0.29%.

What about the viability, T/C [36] of the same molecule?
The viability, T/C was 0.25%.

With `NC(=O)C(=Cn1cnc(-c2cc(C(F)(F)F)cc(C(F)(F)F)c2)n1)c1cncnc1` + CN1CCN(c2cc(C(=O)Nc3cc4cc(-c5cnn(C)c5)ccc4cn3)ccn2)CC1 as the molecule, how does the IC50 (second compound 0.0316 µM) read?
The IC50 was 21.8 nM.

What about the IC50 (second compound 0.1 µM) of the same molecule?
The IC50 was < 9.49 nM.

And the IC50 (second compound 0.316 µM)?
Its IC50 is < 9.49 nM.

What about the IC50 (second compound 1 µM) of the same molecule?
The IC50 was < 9.49 nM.

And the IC50 (second compound 3.16 µM)?
The IC50 was < 9.49 nM.

And the IC50 (second compound 10 µM)?
Its IC50 is < 9.49 nM.

And the viability, T/C (second compound 0.0316 µM, first compound 0.00949 µM)?
The viability, T/C was 80.7%.

What about the viability, T/C (second compound 0.0316 µM, first compound 0.03 µM) of the same molecule?
Its viability, T/C is 39.1%.

What about the viability, T/C (second compound 0.0316 µM, first compound 0.0949 µM) of the same molecule?
The viability, T/C was 22.3%.

And the viability, T/C (second compound 0.0316 µM, first compound 0.3 µM)?
The viability, T/C was 21.2%.

What about the viability, T/C (second compound 0.0316 µM, first compound 0.949 µM) of the same molecule?
The viability, T/C was 23.1%.

What about the viability, T/C (second compound 0.0316 µM, first compound 3 µM) of the same molecule?
The viability, T/C was 17.8%.

And the viability, T/C (second compound 0.1 µM, first compound 0.00949 µM)?
Its viability, T/C is 35.9%.

What about the viability, T/C (second compound 0.1 µM, first compound 0.03 µM) of the same molecule?
The viability, T/C was 23.7%.

And the viability, T/C (second compound 0.1 µM, first compound 0.0949 µM)?
Its viability, T/C is 14%.

What about the viability, T/C (second compound 0.1 µM, first compound 0.3 µM) of the same molecule?
The viability, T/C was 15.4%.

What about the viability, T/C (second compound 0.1 µM, first compound 0.949 µM) of the same molecule?
The viability, T/C was 14.6%.

What about the viability, T/C (second compound 0.1 µM, first compound 3 µM) of the same molecule?
The viability, T/C was 10.6%.

What about the viability, T/C (second compound 0.316 µM, first compound 0.00949 µM) of the same molecule?
The viability, T/C was 10.8%.

And the viability, T/C (second compound 0.316 µM, first compound 0.03 µM)?
Its viability, T/C is 8.91%.

What about the viability, T/C (second compound 0.316 µM, first compound 0.0949 µM) of the same molecule?
The viability, T/C was 4.48%.

And the viability, T/C (second compound 0.316 µM, first compound 0.3 µM)?
Its viability, T/C is 4%.

What about the viability, T/C (second compound 0.316 µM, first compound 0.949 µM) of the same molecule?
Its viability, T/C is 1.55%.

And the viability, T/C (second compound 0.316 µM, first compound 3 µM)?
Its viability, T/C is 0.81%.

What about the viability, T/C (second compound 1 µM, first compound 0.00949 µM) of the same molecule?
The viability, T/C was 0.79%.

And the viability, T/C (second compound 1 µM, first compound 0.03 µM)?
Its viability, T/C is 0.59%.

What about the viability, T/C (second compound 1 µM, first compound 0.0949 µM) of the same molecule?
The viability, T/C was 0.94%.

What about the viability, T/C (second compound 1 µM, first compound 0.3 µM) of the same molecule?
Its viability, T/C is 0.88%.

And the viability, T/C (second compound 1 µM, first compound 0.949 µM)?
Its viability, T/C is 0.76%.

And the viability, T/C (second compound 1 µM, first compound 3 µM)?
Its viability, T/C is 1.07%.

And the viability, T/C (second compound 3.16 µM, first compound 0.00949 µM)?
Its viability, T/C is 0.72%.

What about the viability, T/C (second compound 3.16 µM, first compound 0.03 µM) of the same molecule?
The viability, T/C was 0.67%.

What about the viability, T/C (second compound 3.16 µM, first compound 0.0949 µM) of the same molecule?
The viability, T/C was 0.62%.

And the viability, T/C (second compound 3.16 µM, first compound 0.3 µM)?
The viability, T/C was 0.55%.

And the viability, T/C (second compound 3.16 µM, first compound 0.949 µM)?
The viability, T/C was 0.69%.

What about the viability, T/C (second compound 3.16 µM, first compound 3 µM) of the same molecule?
The viability, T/C was 0.68%.

And the viability, T/C (second compound 10 µM, first compound 0.00949 µM)?
Its viability, T/C is 0.2%.

What about the viability, T/C (second compound 10 µM, first compound 0.03 µM) of the same molecule?
Its viability, T/C is 0.17%.

And the viability, T/C (second compound 10 µM, first compound 0.0949 µM)?
Its viability, T/C is 0.21%.

And the viability, T/C (second compound 10 µM, first compound 0.3 µM)?
Its viability, T/C is 0.22%.

And the viability, T/C (second compound 10 µM, first compound 0.949 µM)?
The viability, T/C was 0.24%.

And the viability, T/C (second compound 10 µM, first compound 3 µM)?
Its viability, T/C is 0.2%.
